Here are results for 3 compounds from PMC10650714, “Double Attack to Oxidative Stress in Neurodegenerative Disorders: MAO-B and Nrf2 as Elected Targets” (Molecules, 2023).

The target in one assay is T1, recombinant hMAO-A (Homo sapiens, UniProt P21397).
T1 construct: purchased Fluka-Sigma-Aldrich s.r.l; (Italy); host or cells: Baculovirus infected BT1 cells
T1 sequence (P21397 1-527): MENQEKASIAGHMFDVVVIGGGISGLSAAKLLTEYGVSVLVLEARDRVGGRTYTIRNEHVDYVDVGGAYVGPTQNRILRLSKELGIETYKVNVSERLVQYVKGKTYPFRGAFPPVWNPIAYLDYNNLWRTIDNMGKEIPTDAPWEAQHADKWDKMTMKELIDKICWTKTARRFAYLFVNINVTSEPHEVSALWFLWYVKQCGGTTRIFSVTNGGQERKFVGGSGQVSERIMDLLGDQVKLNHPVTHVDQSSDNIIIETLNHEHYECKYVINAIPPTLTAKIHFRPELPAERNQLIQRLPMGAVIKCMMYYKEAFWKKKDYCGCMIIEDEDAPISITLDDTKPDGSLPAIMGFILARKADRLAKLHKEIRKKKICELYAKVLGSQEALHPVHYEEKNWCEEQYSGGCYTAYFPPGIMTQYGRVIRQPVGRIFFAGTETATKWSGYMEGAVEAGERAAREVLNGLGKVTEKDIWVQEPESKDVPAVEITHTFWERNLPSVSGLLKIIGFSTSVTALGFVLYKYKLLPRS
The assay is described as follows: hMAO-A activity assay (kynuramine, fluorimetric). The format is biochemical. As for the experimental part:
Human recombinant hMAO-A and hMAO-B expressed in Baculovirus infected BT1 cells (5 mg/mL) and horseradish peroxidases were purchased from Fluka-Sigma-Aldrich s.r.l. (Italy). A Cary Eclipse fluorimeter (Varian Inc., Palo Alto, CA, USA) was used for fluorescence measurements. […] At first, the peroxidase-coupled continuous assay that detect the H2O2 generation rate was considered. It uses the Amplex Red reagent as the fluorogenic substrate for horseradish peroxidase.
By applying this method, hMAO activity assays were performed in K/Pi 0.1 M, EDTA 1 mM (total volume: 200 μL; pH 7.4, T = 37 °C), in the presence and in absence of various concentrations of the different compounds (0.2–20 μM and 2–50 μM in the case of hMAO–B and hMAO-A, respectively).
MAOs stock solutions were diluted with assay buffer in the presence or absence of the tested compound to obtain a final concentration of 0.005 mg/mL for MAO-A and 0.010 mg/mL for MAO-B; then, kynuramine (10–300 μM final concentration) was added to the assay solution. After 45–60 min of incubation at 37 °C, the reaction was stopped by the addition of 2 M NaOH (80 μL) and 480 μL of distilled water. Kynuramine deaminated by MAO spontaneously cyclizes to provide 4-hydroxyquinoline, the amount of which was determined by the fluorescence intensity of the peak of its emission spectra (λexc = 330 nm and λem 330–530 nm). Then, the rate of reaction was calculated using a specific calibration curve (in the presence of the same amount of the tested compound) built with the standard 4-hydroxyquinoline.
Under these experimental conditions, the Michaelis–Menten equation for rate of reaction, can be simplified as follows: V ≈ (Vmax/KM) [E]0[S]0 [49]. In the presence of an inhibitor, one or both the kinetic parameters, KM and Vmax, might be affected by its presence, depending on the inhibition mechanism. In particular, in the presence of a reversible inhibitor, both the kinetic parameters could be affected, and the apparent kinetic parameter would then become: KM I = KM,0 (1 + [I]/Ki)/(1 + [I]/(αKi)), and VmaxI = Vmax0/(1 + [I]/(αKi)), where α is the factor indicating how much the dissociation constant of the enzyme-substrate-I complex is different from that of the enzyme–I complex (also named Ki). Consequently, the ratio of the initial rate of reaction in the absence (Vo) and in the presence (VI) of the tested compound (Vo/VI) can be simplified to the ratio of (Vmax/KM)o/(Vmax/KM)I ≈ (1 + [I]/Ki).
To study the mechanism of inhibition, the steady-state kinetic parameters (Vmax and Km) of MAO-A and MAO-B were determined by performing experiments at different substrate concentrations and in the absence and presence of different concentrations of the tested compound. Vmax and Km were calculated by fitting the Michaelis–Menten equation to the experimental data (initial rate of reactions vs. substrate concentrations), with Sigma Plot software, version 9.0 (Jandel Scientific, San Rafael, CA, USA).

Assay [1] deals with ROS production in HepG2 cells. Put plainly: Intracellular ROS generation rate (DCF-DA). The assay is classed as cell-based, human. Particulars: 5 µM, 30 min; for ROS generation rate (oxidation rate of DCF): both in the presence and absence of antimycin A (10 µM); for effect on antimycin A-induced ROS: antimycin A 10 µM. As for the experimental part: Thus, on the basis of the hMAO-B inhibitory potency and on the Nrf2 nuclear translocation results, the most promising compounds 2 and 3 were chosen for the evaluation of their antioxidant activity in the human hepatic HepG2 cells, a valuable cellular system to assess antioxidant properties of the compounds [43, 44]. CAPE and pioglitazone were also tested as reference compounds. HepG2 cells were pre-loaded with dichlorofluorescein diacetate (DCF-DA), a fluorescent probe to detect ROS generation. […] Immediately, antimycin A (10 µM), an inhibitor of the complex III of the mitochondrial electron transport chain, was also added as an ROS inducer. The oxidation rate of DCF, that is, the generation rate of ROS, was detected for 30 min, and for each sample, the corresponding control was also run.
HepG2 cells (human hepatocellular carcinoma) were purchased from the American Type Culture Collection (ATCC HB-8065). Cells were grown in MEM (M0894, Merck Life Sciences S.r.l., Milan, Italy) supplemented with 2.2 g/L NaHCO3 (S5761, Merck Life Sciences S.r.l., Milan, Italy), 100 U/mL penicillin, 100 μg/mL streptomycin and 0.25 μg/mL amphotericin B (A5955, Merck Life Sciences S.r.l., Milan, Italy) and 10% foetal calf serum (F7524, Merck Life Sciences S.r.l., Milan, Italy). Cells were cultured at 37 °C in a humidified atmosphere incubator containing 5% carbon dioxide in air.
The intracellular production of ROS was detected via a fluorometric method using 2′,7′-dichlorofluorescein diacetate (D6883, Merck Life Sciences S.r.l., Milan, Italy) as probe. HepG2 cells (6 × 10^3/well) were seeded into a 96-well culture plate in 200 µL of a complete growth medium and incubated for 48 h in standard conditions. The medium was then removed, and cells were washed with 5 mM of PBS–glucose. Then, cells were loaded with 10 μM of 2′,7′-dichlorofluorescein diacetate in 5 mM of PBS–glucose at 37 °C in the dark for 20 min, washed with 5 mM of PBS–glucose, treated with the test compounds at indicated concentrations in 5 mM of PBS–glucose and then analysed. Fluorescence intensity was recorded for 30 min at λemx = 485 nm and λem = 527 nm, using a Victor X3 Multilabel plate reader (Perkin Elmer). The rate of ROS generation was calculated relative to untreated cells (controls) after subtraction of autofluorescence value. Results were presented as the mean values of at least three independent experiments performed with six replicates.

Setting [2] is: kynuramine [S] = 10 µM, pH 7.4, 37 °C, mean ± S.D., read-out: hMAO-A Ki.

Entries after “also recorded” stand apart in the source; their conditions may differ. Where two headings read alike, the source gives them in different places.

The Ki is the dissociation constant of the complex between target and ligand, obtained from inhibition or displacement. On to `O=C(/C=C/c1ccc(O)c(O)c1)OCCc1ccccc1` [CAPE, caffeic acid phenethyl ester, reference compound], for which, at recombinant hMAO-A, the Ki was found to be 12 ± 2 µM. For the same compound, in assay [1], the “ROS generation rate (oxidation rate of DCF)” value (“ROS generation rate” for short) was “strongly reducing the oxidation rate of DCF” and the “effect on antimycin A-induced ROS” value is “almost abolish the effect of antimycin A stimulus”.

With `O=C(/C=C/c1ccc(O)c(O)c1)Oc1ccc(CC2SC(=O)NC2=O)cc1` (centres unmarked) [Compound 2, 4-((2,4-Dioxothiazolidin-5-yl)methyl)phenyl (E)-3-(3,4-Dihydroxyphenyl)acrylate], the Ki on recombinant hMAO-A (setting [2]) stood at 35 ± 4 µM. Also, in assay [1], the “ROS generation rate” value is “highest antioxidant potency; also recorded: significantly reduced cellular ROS content” and the “effect on antimycin A-induced ROS” value is listed as “almost abolish the effect of antimycin A stimulus”.

With `CCc1ccc(CCOc2ccc(CC3SC(=O)NC3=O)cc2)nc1` (centres unmarked) [Pioglitazone, reference compound], at recombinant hMAO-A (setting [2]), the inhibitory constant (Ki) was over 100 µM. The “ROS generation rate” value in assay [1] is on record as “did not show any effect on the ROS generation rate”.
